# Assay results taken from article PMC8032668, “Evaluation of carboxyfluorescein-labeled 7-methylguanine nucleotides as probes for studying cap-binding proteins by fluorescence anisotropy” (Scientific Reports, 2021).
# Tests used:
# [1] = biological target: T1, eIF4E (Mus musculus, UniProt P63073); test: FA competition (probe-displacement) assay for eIF4E; format: binding, Murine; conditions: for EC50: HEPES pH 7.2
# T1 construct: Murine eIF4E (residues 28–217) was expressed in E. coli; made in house; host or cells: E. coli
# Protocol: Inclusion bodies containing eIF4E were solubilized in 50 mM HEPES/KOH (pH 7.2) buffer containing 10% glycerol, 6 M guanidine hydrochloride and 2 mM DTT. Protein was then refolded during a two-step dialysis against buffer with decreasing concentration of guanidine hydrochloride in the presence of 100 mM KCl. Subsequently eIF4E was loaded on ion exchange HiTrap SP HP column (GE Healthcare), eluted with linear gradient of 0.1–1 M KCl and finally desalted and polished during a gel filtration purification step on HiLoad 16/600 Superdex 75 pg (GE Healthcare) using 50 mM HEPES pH 7.2, 100 mM KCl, 0.5 mM EDTA, 2 mM DTT buffer. eIF4E was aliquoted and stored in the presence of 10% glycerol at −80 °C. Before each experiment the protein was centrifuged on Ultrafree-MC Centrifugal PVDF filter with […] pore size (Millipore), at 4 °C and 3000×g for 2 min to remove any possible aggregates.
# (§1) Experiments were carried out at 25 °C in 96-well non-binding microplates with sample volume of 200 µl per well. Two different buffers were used depending on protein used in the assay:
# eIF4E assay buffer—50 mM HEPES (pH 7.2), 100 mM KCl, 0.5 mM EDTA, 1 mM DTT.
# (§2) For competitive binding assay, a mixture containing the probe and the protein was incubated with the tested ligand.
# (§3) In competitive measurements, a constant concentration of the protein and fluorescent probe and increasing concentration of the test ligand were used. At least 12 point dilutions of the tested compound were used. The experiments were carried out in 96-well plates. Each sample contained a mixture consisting of the probe, tested ligand and buffer (same as for the direct binding assay). The samples were incubated for 10 min at 25 °C with simultaneous shaking, then the protein was added to each well, incubated for additional 3 min, followed by the measurement of fluorescence anisotropy. FA signals were recorded for 20 min with 2 min intervals.
# [2] = biological target: T2, DcpS (Homo sapiens, UniProt Q96C86); test: FA competition assay for DcpS; format: binding
# T2 construct: His tag; made in house; host or cells: E. coli BL21(DE3) RIL
# T2 sequence (Q96C86 1-337): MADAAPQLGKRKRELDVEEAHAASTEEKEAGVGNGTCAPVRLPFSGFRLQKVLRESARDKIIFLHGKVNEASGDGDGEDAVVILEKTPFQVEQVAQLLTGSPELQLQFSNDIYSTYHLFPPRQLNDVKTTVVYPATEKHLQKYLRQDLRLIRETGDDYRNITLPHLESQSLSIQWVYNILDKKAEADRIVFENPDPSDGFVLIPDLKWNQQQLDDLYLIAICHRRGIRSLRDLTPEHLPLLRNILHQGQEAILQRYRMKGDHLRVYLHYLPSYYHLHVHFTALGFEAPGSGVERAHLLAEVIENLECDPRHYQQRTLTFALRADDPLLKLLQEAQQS
# Protocol: Expression of recombinant His-tagged human DcpS was performed in BL21(DE3) RIL strain and induced overnight at 18 °C using 0.5 mM IPTG as described previously. Cells were harvested, resuspended in buffer (50 mM Tris pH 7.6, 500 mM NaCl, 20 mM imidazole) with lysozyme (0.1 mg/ml) and protease inhibitors (1 mM PMSF, 1 µM pepstatin A, 0.3 µM aprotinin) and then lysed using sonication. Lysate was clarified by centrifugation at 35 000 × g for 40 min at 4 °C. […] The enzyme hDcpS was purified to homogeneity on HiLoad 16/600 Superdex 200 pg (GE Healthcare) gel filtration column using 50 mM Tris·HCl pH 7.6, 200 mM NaCl, 2 mM DTT buffer. Protein was aliquoted and stored in the presence of 10% glycerol at -80 °C.
# as §1
# DcpS assay buffer—50 mM Tris–HCl (pH 7.6), 200 mM KCl, 0.5 mM EDTA, 1 mM DTT.
# as §2, §3
# [3] = tested on: DcpS; set-up: method as in PMID 27031609; conditions: DcpS inhibition, FR assay; cited from earlier work
# [4] = biological target: T2, DcpS; test: FA screening of in-house library, 2i:DcpS system; format: binding; conditions: 1 nM 2i, 25 nM DcpS, 1.5 µM inhibitor
# Protocol: The Z’ factor was determined under conditions optimized for the competition assay. The Z’ value exceeded 0.8 for incubation times up to 1 h, making the assay suitable for screening experiments (Table 5). A screening experiment was then performed using the same compound library as that used for eIF4E screening. The results highlighted the impact of the triphosphate bridge modification on the affinity for the protein. […] The FA method also enabled the identification of unstable compounds, e.g., hydrozylable ligands for which determination of affinity is problematic (as observed by FA signal changes during the experiment; Fig. 7).
# To evaluate the quality of the assay, the Z’ factor was determined for several protein-probe combinations. The assay was performed on 96-well microplates, where half of the samples were negative controls and the other half were positive controls.
# For the screening experiments a small in-house library containing 21 ligands was used. Experiments were conducted in the same manner as Z’ factor determination, with exception that the ligand concentration was modified (eIF4E screening conditions: 1 nM 1e, 100 nM eIF4E, 750 nM ligand, DcpS screening conditions: 1 nM 2i, 25 nM DcpS, 1.5 µM ligand). For eIF4E screening experiment, the 1e:eIF4E system was used, for DcpS screening 2i:DcpS system was used.
# [5] = biological target: 4G peptide (UniProt Q04637); test: fluorescence anisotropy; conditions: cited from earlier work
# [6] = Probe 1a: 10 nM probe 1a and 100 nM eIF4E
# [7] = Probe 1b: 1 nM probe 1b and 15 nM eIF4E
# [8] = Probe 1e: footnote c, 1 nM probe 1c and 100 nM eIF4E
# [9] = 1f:DcpS system, 1f and 100 nM DcpS
# [10] = 2g:DcpS system, 2 nM 2g and 25 nM DcpS
# [11] = 2i:DcpS system, 1 nM 2i and 25 nM DcpS
# [12] = 2h:DcpS system, 2 nM 2h and 25 nM DcpS
# T1 sequence (P63073 28-217): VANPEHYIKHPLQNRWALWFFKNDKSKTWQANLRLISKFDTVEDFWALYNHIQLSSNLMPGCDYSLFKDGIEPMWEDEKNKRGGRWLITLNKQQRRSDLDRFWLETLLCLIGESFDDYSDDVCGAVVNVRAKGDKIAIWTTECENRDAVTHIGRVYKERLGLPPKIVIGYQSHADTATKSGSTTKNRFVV
# eIF4E (from UniProt P06730), sequence (P06730 2-217): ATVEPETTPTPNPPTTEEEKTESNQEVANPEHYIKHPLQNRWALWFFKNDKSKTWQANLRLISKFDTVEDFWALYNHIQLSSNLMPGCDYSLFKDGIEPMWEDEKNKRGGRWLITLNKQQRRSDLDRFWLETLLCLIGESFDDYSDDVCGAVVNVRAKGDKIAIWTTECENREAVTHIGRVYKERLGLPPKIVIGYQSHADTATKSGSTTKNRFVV
"Hill slope [1, 6]","EC50 [1, 6] [nM]","Hill slope [1, 7]","EC50 [1, 7] [nM]","Hill slope [1, 8]","EC50 [1, 8] [nM]",inhibitory potency in DcpS screening [4],Compound,other results
1.37 ± 0.02,184 ± 13,1.16 ± 0.18,210 ± 32,1.10 ± 0.06,226 ± 43,–,"C[n+]1cn([C@@H]2O[C@H](COP(=O)([O-])OP(O)(=S)OP(=O)(O)OC[C@H]3O[C@@H](n4cnc5c(=O)[nH]c(N)nc54)[C@H](O)[C@@H]3O)[C@@H](O)[C@H]2O)c2nc(N)[nH]c(=O)c21 (single isomer, unassigned) [m^7GppSpG D1]",–
–,–,–,–,–,–,strong DcpS inhibitors,C[n+]1cn([C@@H]2O[C@H](COP(=O)([O-])NP(=O)(O)OP(=O)(O)OC[C@H]3O[C@@H](n4cnc5c(=O)[nH]c(N)nc54)[C@H](O)[C@@H]3O)[C@@H](O)[C@H]2O)c2nc(N)[nH]c(=O)c21.N.N [m^7GpNHppG],"EC50 [2, 9]: 27.8 ± 2.7 nM; Hill slope [2, 9]: 2.26 ± 0.16; EC50 [2, 10]: 11.6 ± 0.4 nM; Hill slope [2, 10]: 1.95 ± 0.07; EC50 [2, 11]: 17.9 ± 1.3 nM; Hill slope [2, 11]: 1.66 ± 0.10; EC50 [2, 12]: 18.1 ± 5 nM; Hill slope [2, 12]: 1.23 ± 0.44; IC50 [3]: 3200 ± 900 nM"
1.12 ± 0.03,413 ± 13,1.12 ± 0.06,599 ± 64,1.08 ± 0.11,551 ± 75,–,Cn1c[n+]([C@@H]2O[C@H](COP(=O)(O)OP(=O)([O-])OP(=O)(O)OC[C@H]3O[C@@H](n4cnc5c(=O)[nH]c(N)nc54)[C@H](O)[C@@H]3O)[C@@H](O)[C@H]2O)c2nc(N)[nH]c(=O)c21 [m^7GpppG],–
–,–,–,–,–,–,strong DcpS inhibitors,C[n+]1cn([C@@H]2O[C@H](COP(=O)(O)CP(=O)(O)OP(=O)(O)OC[C@H]3O[C@@H](n4cnc5c(=O)[nH]c(N)nc54)[C@H](O)[C@@H]3O)[C@@H](O)[C@H]2O)c2nc(N)[nH]c(=O)c21 [m^7GpCH2ppG],–
–,–,–,–,–,–,strong DcpS inhibitors,C[n+]1cn([C@@H]2O[C@H](COP(=O)(O)CP(=O)(O)OP(=O)([O-])OP(=O)(O)OC[C@H]3O[C@@H](n4cnc5c(=O)[nH]c(N)nc54)[C@H](O)[C@@H]3O)[C@@H](O)[C@H]2O)c2nc(N)nc(O)c21 [m^7GpCH2pppG],–
1.19 ± 0.06,382 ± 21,1.15 ± 0.06,511 ± 109,1.04 ± 0.17,477 ± 89,–,"C[n+]1cn([C@@H]2O[C@H](COP(=O)([O-])OP(O)(=S)OP(=O)(O)OC[C@H]3O[C@@H](n4cnc5c(=O)[nH]c(N)nc54)[C@H](O)[C@@H]3O)[C@@H](O)[C@H]2O)c2nc(N)[nH]c(=O)c21 (single isomer, unassigned) [m^7GppSpG D2]",–
2.07 ± 0.02,68 ± 3,1.64 ± 0.10,22.2 ± 3.7,1.46 ± 0.60,51.4 ± 6.1,–,"CO[C@@H]1[C@H](O)[C@@H](COP([O-])(=S)OP(=O)(O)OP(=O)(O)OP(=O)(O)OC[C@H]2O[C@@H](n3cnc4c(=O)[nH]c(N)nc43)[C@H](O)[C@@H]2O)O[C@H]1n1c[n+](C)c2c(=O)[nH]c(N)nc21 (single isomer, unassigned) [m^7′-OGpSpppG D1, m^7,2′-OGpSpppG D1]",–
1.94 ± 0.26,74 ± 10,1.37 ± 0.08,34.9 ± 7,1.40 ± 0.06,64.3 ± 3.4,–,"CO[C@@H]1[C@H](O)[C@@H](COP([O-])(=S)OP(=O)(O)OP(=O)(O)OP(=O)(O)OC[C@H]2O[C@@H](n3cnc4c(=O)[nH]c(N)nc43)[C@H](O)[C@@H]2O)O[C@H]1n1c[n+](C)c2c(=O)[nH]c(N)nc21 (single isomer, unassigned) [m^7′-OGpSpppG D2, m^7,2′-OGpSpppG D2]",–

# More lines, now with the values behind:
Compound,"Hill slope [1, 6]","EC50 [1, 6] [nM]","Hill slope [1, 7]","EC50 [1, 7] [nM]","Hill slope [1, 8]","EC50 [1, 8] [nM]",inhibitory potency in DcpS screening [4],other results
Cn1c[n+]([C@@H]2O[C@H](COP(=O)(O)O)[C@@H](O)[C@H]2O)c2nc(N)[nH]c(=O)c21 [m^7GMP],–,–,–,–,–,–,–,"EC50 [2, 9]: 104 ± 11 nM; Hill slope [2, 9]: 1.19 ± 0.15; EC50 [2, 10]: 112 ± 11 nM; Hill slope [2, 10]: 1.04 ± 0.02; EC50 [2, 11]: 255 ± 14 nM; Hill slope [2, 11]: 1.00 ± 0.02; EC50 [2, 12]: 357 ± 44 nM; Hill slope [2, 12]: 0.93 ± 0.07; IC50 [3]: 97000 ± 21000 nM"
[BH3-]P(=O)(OP(=O)(O)OCC1OC(n2cnc3c(=O)[nH]c(N)nc32)C(O)C1O)OP(=O)(O)OCC1OC(n2c[n+](C)c3c(=O)[nH]c(N)nc32)C(O)C1O (stereo not drawn) [m^7GppBH3pG D2],–,–,–,–,–,–,–,stability towards DcpS (FA signal changes during the screening experiment) [4]: slowly hydrolyzed DcpS substrates
m^7GSppSpG D2,–,–,–,–,–,–,the most potent inhibitors,–
[BH3-]P(=O)(OP(=O)(O)OCC1OC(n2cnc3c(=O)[nH]c(N)nc32)C(O)C1O)OP(=O)(O)OCC1OC(n2c[n+](C)c3c(=O)[nH]c(N)nc32)C(O)C1O (stereo not drawn) [m^7GppBH3pG D1],–,–,–,–,–,–,–,stability towards DcpS (FA signal changes during the screening experiment) [4]: slowly hydrolyzed DcpS substrates
eIF4E (from UniProt P06730),–,–,–,–,–,–,–,Kd [5]: 25000 nM
C[n+]1cn([C@@H]2O[C@H](COP(=O)([S-])OP(=O)(O)OP(=O)(O)OC[C@H]3O[C@@H](n4cnc5c(=O)[nH]c(N)nc54)[C@H](O)[C@@H]3O)[C@@H](O)[C@H]2O)c2nc(N)nc(O)c21 (stereo partly drawn) [m^7GpSppG D1],–,–,–,–,–,–,–,stability towards DcpS (FA signal changes during the screening experiment) [4]: slowly hydrolyzed DcpS substrates
m^7GSppSpSG D1,–,–,–,–,–,–,the most potent inhibitors,–
m^7GSppSpG D1,–,–,–,–,–,–,the most potent inhibitors,–
m^7GSppSpSG D2,–,–,–,–,–,–,the most potent inhibitors,–
Cn1c[n+]([C@@H]2O[C@H](COP(=O)(O)OP(=O)([O-])O)[C@@H](O)[C@H]2O)c2nc(N)[nH]c(=O)c21 [m^7GDP],1.36 ± 0.03,204 ± 5.5,1.16 ± 0.04,212 ± 30,1.08 ± 0.07,216 ± 11,–,"EC50 [2, 9]: 36.5 ± 3.6 nM; Hill slope [2, 9]: 1.98 ± 0.18; EC50 [2, 10]: 16.4 ± 0.2 nM; Hill slope [2, 10]: 1.55 ± 0.09; EC50 [2, 11]: 36.2 ± 4.7 nM; Hill slope [2, 11]: 1.42 ± 0.06; EC50 [2, 12]: 31.2 ± 10.7 nM; Hill slope [2, 12]: 1.06 ± 0.37; IC50 [3]: 5200 ± 1200 nM"
